The values that follow come from patent US4837333A, “Substituted alkylidene imidazoles” (G. D. Searle & Co., priority 1987, dated 1989).

Assay [1] addresses T1, thromboxane synthetase (Homo sapiens, UniProt P24557).
T1 construct: The citrated blood was centrifuged at 160 g for 10 mins. at 22° C. to obtain platelet rich plasma (prp); endogenous in cells; host or cells: human platelets in citrated platelet rich plasma from healthy male donors
T1 sequence (P24557 1-533): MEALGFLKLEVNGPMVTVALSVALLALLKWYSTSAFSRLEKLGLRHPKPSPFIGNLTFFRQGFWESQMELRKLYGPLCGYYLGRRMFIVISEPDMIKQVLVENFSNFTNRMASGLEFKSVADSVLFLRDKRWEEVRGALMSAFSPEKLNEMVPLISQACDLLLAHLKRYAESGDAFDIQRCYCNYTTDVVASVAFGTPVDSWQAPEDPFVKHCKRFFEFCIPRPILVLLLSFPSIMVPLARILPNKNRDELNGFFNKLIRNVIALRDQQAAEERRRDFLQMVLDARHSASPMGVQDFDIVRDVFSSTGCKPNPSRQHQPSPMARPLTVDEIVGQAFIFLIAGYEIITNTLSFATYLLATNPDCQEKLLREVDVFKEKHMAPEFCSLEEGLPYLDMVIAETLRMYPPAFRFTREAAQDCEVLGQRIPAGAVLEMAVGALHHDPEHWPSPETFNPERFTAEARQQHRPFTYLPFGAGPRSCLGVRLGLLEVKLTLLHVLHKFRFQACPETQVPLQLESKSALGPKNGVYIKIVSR
Briefly: Thromboxane production in Human Platelet Rich Plasma (collagen-stimulated, TxB2 radioimmunoassay). It counts as cell-based. To be noted: 10 min. incubation, collagen 20 μg/ml, 37° C., read-out: ACTIVITY (IC50 × 10^6 M), inhibition of collagen-induced TxB2 generation. Here is the method: (i) inhibition of the generation of thromboxane A2 as determined by radioimmunoassay of its stable metabolite, thromboxane B2 (New England Nuclear, Thromboxane B2 [^3 H] RIA kit, Catalogue No. NEK 007); and
Various compounds of the present invention were evaluated utilizing an in vitro radioimmunoassay as described in the following Example in order to determine inhibition of thromboxane production.
Thromboxane production in Human Platelet Rich Plasma
(a) Platelet rich plasma (prp) preparation
Human venous blood was collected from healthy male donors, who had denied any medication during the previous 14 days. Nine volumes of blood were mixed with one volume of 3.24% trisodium citrate. The citrated blood was centrifuged at 160 g for 10 mins. at 22° C. to obtain platelet rich plasma (prp). The platelets were then counted on a Coulter counter, and the platelet count was adjusted to 200,000 per μl with plasma.
(b) Thromboxane generation
The prp was then dispensed as aliquots into micro-Eppendorf tubes, maintained at 37° C. in a dry bath. The compound to be evaluated was dissolved either in saline, ethanol, or dimethylsulphoxide, and added in duplicate to the prp aliquots to produce a final concentration in the range of 0.1-30 μg/ml. When ethanol or dimethylsulphoxide was used to dissolve the compound, triplicate controls containing the same percentage of ethanol or dimethyl sulphoxide as the test compound was made. The final concentration of organic solvent was never greater than 0.1%, which has been determined to have no effect on TxB2 generation.
Following a 10 min. incubation withtest compounds or controls, collagen was added to the tubes containing the test compounds to produce a final concentration of 20 μg/ml. The tubes were then whirly-mixed for 15 seconds and replaced in the dry bath for a further 10 minutes. Saline was added to the tubes containing the controls, in lieu of collagen. The reaction was then stopped by rapid centrifugation (15000 g for 3 mins). The plasma was removed and frozen at -29° C. until assayed.
(c) Assay of Thromboxane B2
Aliquots (100 μl) of thromboxane TxB2 (plasma extract or standards 50 to 10,000 pg/ml), [^3 H]-TxB2 (approximately 15,000 dpm) and anti-TxB2 antiserum (0.5 μg/100 μl) were combined in […] phosphate buffer+0.1% gelatin+thimerosal (pH 6.8) were incubated for 16 hours at 4° C. The free and protein bound [^3 H]-TxB2 were separated by absorption onto activated charcoal followed by centrifugation. 1.0 ml of the supernatant was added to an aqueous scintillation fluid, and the radioactivity present was counted in a liquid scintillation counter. The binding of [^3 H]-TxB2 in the absence of added TxB2 was approximately 55%. The minimum concentration of TxB2 to be detected accurately in the plasma was 50 pg.ml. Cross reactivity with other prostaglandins was less than 0.005% except with PGD2 wherein the cross reactivity was 1%.
The plasma samples were initially assayed to give approximation of TxB2 content. The plasma was then appropriately diluted and re-assayed in duplicate to give final values.
The amount of TxB2 generated by collagen was calculated by subtracting mean values obtained for the saline stimulated platelets from the mean values obtained from the collagen stimulated platelets. The amount of TxB2 generated in the presence of each concentration of test compound was expressed as a % of control and dose response curves were constructed to determine the concentration of test compound which produced 50% inhibition.

Assay [2] concerns Thromboxane Formation (plasma TXB2). Kind of assay: Whole Blood Aggregation and Thromboxane Formation In Vivo: Guinea Pig (plasma TXB2 by RIA). To be noted: oral (dose not given), ex vivo collagen-stimulated citrated whole blood, normalized to platelet count. The procedure: Whole Blood Aggregation and Thromboxane Formation In Vivo: Guinea Pig
All guinea pigs (albino male Dunkin-Bartley, 300-350 g) were fasted overnight before use in the test. The test compound was administered by oral dosing needle to conscious animals. All test compounds, if not water soluble, were administered formulated in a 50% PEG 400/50% carboxymethylcellulose mixture as solution or suspension. Oral dose volumes were 0.1 ml per 100 g body weight.
Animals were anaesthetized with pentabarbitone sodium (60 mg/kg) given intraperitoneally approximately 10 minutes before the bleed time. Once surgically anaesthetized, the peritoneal cavity was opened, and 4.5 ml blood was drawn into a syringe containing 0.5 ml 3.0% trisodium citrate (9:1 v/v) from the abdominal aorta via a 21/23 gauge butterfly needle. The blood was gently mixed with the citrate in the syringe, and transferred to a screwcap plastic tube. Animals were dosed and bled at one hour intervals.
Aggregation of the citrated guinea pig whole blood was carried out within 1-2 hours of bleeding, using standard whole blood aggregometry and counting technique. Aliquots (0.55 ml) of citrated whole blood were heated to 37° C. and stirred at 1000 RPM in an aggregometer. An initial 50 μl sample of blood was withdrawn for counting, collagen was added, and additional samples were withdrawn at 1, 2, 3 and 4 minutes. Aggregation was monitored by noting the decrease in single platelet count. Buffer (no collagen) control were included.
At the end of the four minute incubation for platelet counting, the remainder of each blood sample was allowed to stir for one additional minute. At 5 minutes, 1.0 μl of 19 mg/ml indomethacin (dissolved in dimethylsulfoxide) was added to each sample, resulting in a final indomethacin concentration of 30 ug/ml. The resulting solutions were mixed (15-30 seconds) and cooled on ice. Samples were centrifuged and 150 ul of plasma was removed. The plasma samples were frozen until radioimmunoassay for TXB2. The radioimmunoassay was conducted as previously described at plasma dilutions of 1:20. Two vehicle administered control aminals were run. Groups of at least four animals per test compound were utilized.
The raw results obtained in the RIA from a 0.1 ml sample of 1:20 diluted plasma were corrected to pg/ml in original plasma sample (×200). The R.I.A. values were then normalized for initial platelet count within the blood sample to 5.0×10^8 ml^-1 (range of platelet count in citrated guinea pig whole blood was varied between the limits […] ml^-1). The test and control results were then compared, and inhibition (%) calculated in the normal way. Statistical analysis is again by Student's t-test.

For `COc1ccc(COC/C(=C\c2ccc(C(=O)O)cc2)Cn2ccnc2)cc1` [Example 3, 4-[3-(1H-Imidazol-1-yl)-2-[[(4-methoxyphenyl)methoxy]methyl]-1Z-propenyl]benzoic acid], the IC50 in assay [1] is 0.56 µM. The same measure, in the same setting: with `CCOC(=O)CCCCCC=C(COCc1ccc(OC)cc1)Cn1ccnc1` [Example 4, ethyl 9-(1H-imidazol-1-yl)-8-[[(4-methoxyphenyl)methoxy]methyl]-7-nonenoate] the figure was 9.3 µM. On the same count and under the same terms, with `CCOC(=O)CCCCCC=C(CCCc1ccc(OC)cc1)Cn1ccnc1` [Example 8, Ethyl 8-[(1H-imidazol-1-yl)methyl]-11-(4-methoxyphenyl)-7-undecenoate] the figure was 1.8 µM. In the case of `COc1ccc(COC/C(=C/c2ccc(C(=O)O)cc2)Cn2ccnc2)cc1` [Example 2, 4-[3-(1H-imidazol-1-yl)-2-[[(4-methoxyphenyl)methoxy]methyl]-1E-propenyl]benzoic acid], the IC50 in assay [1] amounted to 18.2 µM.

Take `CCOC(=O)c1ccc(/C=C(/COCc2ccc(OC)cc2)Cn2ccnc2)cc1Cl` [10 (E-isomer)]: the IC50 in assay [1] was found to be 4.78 µM. Besides, the “% INHIBITION (plasma TXB2)” value in assay [2] is on record as -18.6%. `CCOC(=O)c1ccc(/C=C(\COCc2ccc(OC)cc2)Cn2ccnc2)cc1` [1 (Z-isomer), ethyl 4-[3-(1H-imidazol-1-yl)-2-[[(4-methoxyphenyl)methoxy]methyl]-1Z-propenyl]benzoate]: the IC50 in assay [1] came to 0.022 µM. Further, the “% INHIBITION (plasma TXB2)” value in assay [2] is reported as -45.5%. In the case of `CCOC(=O)c1cccc(/C=C(/COCc2ccc(OC)cc2)Cn2ccnc2)c1` [9 (E-isomer), ethyl 3-[3-(1H-imidazol-1-yl)-2-[[(4-methoxyphenyl)methoxy)methyl]-1E-propenyl]-benzoate], the IC50 in assay [1] amounted to 403 µM. Regarding `COc1ccc(COCC(=CCCCCCC(=O)O)Cn2ccnc2)cc1` [Example 5, 9-(1H-Imidazol-1-yl)-8-[[(4-methoxyphenyl)methoxy]methyl]-7-nonenoic acid], in assay [1], the IC50 came out at 4.6 µM. The “% INHIBITION (plasma TXB2)” value in assay [2] was -4.0%. On the same counts, the results for `CCOC(=O)c1ccc(/C=C(\CCCc2ccc(OC)cc2)Cn2ccnc2)cc1` [12 (E-isomer), ethyl 4-[2-[(1H-imidazol-1-yl)-methyl]-5-(4-methoxyphenyl)-1E-pentenyl]benzoate] are 0.15 µM and -92.3%. Take `CCOC(=O)c1ccc(/C=C(\COCc2ccc(F)cc2)Cn2ccnc2)cc1` [13 (Z-isomer), ethyl 4-[2-[[(4-fluorophenyl)methoxy]-methyl]-3-(1H-imidazol-1-yl)-1Z-propenyl]benzoate]: the IC50 in assay [1] amounted to 0.45 µM. For the same molecule, in assay [2], the “% INHIBITION (plasma TXB2)” value was -49.1%. With `CCOC(=O)c1ccc(/C=C(/COCc2ccc(OC)cc2)Cn2ccnc2)cc1` [1 (E-isomer), ethyl 4-[3-(1H-imidazol-1-yl)-2-[[(4-methoxyphenyl)methoxy]methyl]-1E-propenyl]benzoate], the IC50 in assay [1] stood at 0.89 µM. Consider `CCOC(=O)c1cccc(/C=C(\COCc2ccc(OC)cc2)Cn2ccnc2)c1` [9 (Z-isomer), ethyl 3-[3-(1H-imidazol-1-yl)-2-[[(4-methoxyphenyl)methoxy]methyl]-1Z-propenyl]benzoate], for which the IC50 in assay [1] worked out at 11.5 µM. As for `COc1ccc(COCC(=CCCCCC(=O)O)Cn2ccnc2)cc1` [Example 6, 8-(1H-Imidazol-1-yl)-7-[[(4-methoxyphenyl)methoxy]methyl]-6-octenoic acid], in assay [1], the IC50 turned out to be 1.4 µM.

On to `COc1ccc(C=C(COCc2ccc(OC)cc2)Cn2ccnc2)cc1` [Example 7, 1-[3-(4-Methoxyphenyl)-2-[[(4-methoxyphenyl)methoxy]methyl]-2-propenyl]-1H-imidazole], for which the IC50 in assay [1] was found to be 17.3 µM. In the case of `CCOC(=O)c1ccc(/C=C(/COCc2ccc(OC)cc2)Cn2ccnc2)cc1OC` [11 (E-isomer)], in assay [1], the IC50 came out at 21.8 µM. The “% INHIBITION (plasma TXB2)” value in assay [2] was -36.0%.
